For 63 compounds, Ki results are on record in patent US8338597B2, “Pyridones useful as inhibitors of kinases” (Vertex Pharmaceuticals Incorporated, priority 2004, dated 2012).

The assay concerns the target T1, Itk (Homo sapiens, UniProt Q08881).
T1 sequence (Q08881 1-620): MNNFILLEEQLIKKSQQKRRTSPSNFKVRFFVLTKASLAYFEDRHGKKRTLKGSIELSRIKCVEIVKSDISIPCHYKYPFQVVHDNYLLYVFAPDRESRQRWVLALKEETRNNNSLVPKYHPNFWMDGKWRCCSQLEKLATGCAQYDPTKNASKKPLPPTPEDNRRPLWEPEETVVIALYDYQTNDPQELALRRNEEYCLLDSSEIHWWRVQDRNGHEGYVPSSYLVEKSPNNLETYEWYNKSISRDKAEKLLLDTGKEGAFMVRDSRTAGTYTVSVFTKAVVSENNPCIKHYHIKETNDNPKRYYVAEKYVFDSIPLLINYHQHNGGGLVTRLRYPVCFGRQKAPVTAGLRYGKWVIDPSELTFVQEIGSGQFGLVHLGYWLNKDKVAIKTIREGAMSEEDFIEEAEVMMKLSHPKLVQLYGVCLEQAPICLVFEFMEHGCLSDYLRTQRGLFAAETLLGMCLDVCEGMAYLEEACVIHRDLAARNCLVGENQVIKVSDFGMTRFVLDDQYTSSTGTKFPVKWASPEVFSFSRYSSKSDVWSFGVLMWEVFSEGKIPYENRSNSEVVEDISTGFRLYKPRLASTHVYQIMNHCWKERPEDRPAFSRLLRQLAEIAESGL
The assay can be described thus: ITK inhibition assay, radioactive-phosphate incorporation. The format is biochemical. Conditions: [γ-33P]ATP, SAM68 peptide, 25° C. As to the method: Assays were carried out in a mixture of 20 mM MOPS (pH 7.0), 10 mM MgCl2, 0.1% BSA and 1 mM DTT. […] Assays were carried out at 25° C. in the presence of 50 nM Itk. An assay stock buffer solution was prepared containing all of the reagents listed above, with the exception of ATP and the test compound of interest.
The reaction was stopped after 10 minutes by the addition of […] 0.2M phosphoric acid+0.01% TWEEN 20. A multiscreen phosphocellulose filter 96-well plate (Millipore, Cat no. MAPHN0B50) was pretreated with 100 μL 0.2M phosphoric acid+0.01% TWEEN 20 prior to the addition of […] of the stopped assay mixture. The plate was washed with 4×200 μL 0.2M phosphoric acid+0.01% TWEEN 20.
Ki(app) data were calculated from non-linear regression analysis of the initial rate data using the Prism software package (GraphPad Prism version 3.0cx for Macintosh, GraphPad Software, San Diego Calif., USA).

On to `O=C(Nc1cc(-c2ccncc2)c[nH]c1=O)c1ccc(Br)cc1` [Compound I-20, 4-Bromo-N-(1,2-dihydro-2-oxo-5-(pyridin-4-yl)pyridin-3-yl)benzamide], for which the inhibition constant (Ki) is 100 to 1000 nM.
On to `CC(C)Oc1ccc(C(=O)Nc2cc(-c3ccncc3)c[nH]c2=O)cc1` [Compound I-21], for which the Ki was 100 to 1000 nM.
For the compound `O=C(Nc1cc(-c2ccncc2)c[nH]c1=O)c1ccc(Oc2ccccc2)cc1` [Compound I-22], the inhibitory constant (Ki) is 100 to 1000 nM.
Next, `O=C(Nc1cc(-c2ccncc2)c[nH]c1=O)c1ccc(Cl)cc1` [Compound I-27]: 100 to 1000 nM; `CN(C)c1ccc(C(=O)Nc2cc(-c3ccncc3)c[nH]c2=O)cc1` [Compound I-45]: 100 to 1000 nM.
The result for `O=C(Nc1cc(-c2ccncc2)c[nH]c1=O)c1ccc(OCc2ccccc2)cc1` [Compound I-46] reads 100 to 1000 nM; that for `O=C(Nc1cc(-c2ccncc2)c[nH]c1=O)c1ccc(O)cc1` [Compound I-47], 100 to 1000 nM; that for `O=C(Nc1cc(-c2ccncc2)c[nH]c1=O)c1ccc(N2CCC(O)CC2)cc1` [Compound I-72], 100 to 1000 nM.
Turning to `O=C(Nc1cc(-c2ccncc2)c[nH]c1=O)c1ccc(N2CCOCC2)cc1` [Compound I-73], the inhibition constant Ki is 100 to 1000 nM.
On to `O=C(Nc1cc(-c2ccncc2)c[nH]c1=O)c1ccc(N2CCC(N3CCCC3)CC2)cc1` [Compound I-75], for which the inhibitory constant (Ki) fell in the range of 100 to 1000 nM.
Turning to `COCCCN1CCN(c2ccc(C(=O)Nc3cc(-c4ccncc4)c[nH]c3=O)cc2)CC1` [Compound I-77], the inhibition constant Ki is below 100 nM.
The result for `O=C(Nc1cc(-c2ccncc2)c[nH]c1=O)c1ccc(N2CCN(CCOCCO)CC2)cc1` [Compound I-81] reads below 100 nM; that for `CNCCCN(C)Cc1ccc(C(=O)Nc2cc(-c3ccncc3)c[nH]c2=O)cc1` [Compound I-85], 100 to 1000 nM.
As to `CNCCNc1nccc(-c2c[nH]c(=O)c(NC(=O)c3ccc(C(C)(C)C)cc3)c2)n1` [II-20], the inhibition constant (Ki) is below 100 nM.
For `CN(C)c1nccc(-c2c[nH]c(=O)c(NC(=O)c3ccc(C(C)(C)C)cc3)c2)n1` [II-21], the Ki was 100 to 1000 nM.
Take `CCNc1nccc(-c2c[nH]c(=O)c(NC(=O)c3ccc(C(C)(C)C)cc3)c2)n1` [II-22]: the Ki was below 100 nM.
Next, `CC(C)Nc1nccc(-c2c[nH]c(=O)c(NC(=O)c3ccc(C(C)(C)C)cc3)c2)n1` [II-23]: below 100 nM.
As for `CC(C)(C)c1ccc(C(=O)Nc2cc(-c3cccc(NC4CCNCC4)n3)c[nH]c2=O)cc1` [II-32], the Ki lay within 100 to 1000 nM.
Next, `CC(C)(C)c1ccc(C(=O)Nc2cc(-c3ccncn3)c[nH]c2=O)cc1` [II-34]: 100 to 1000 nM.
Turning to `CC(C)(C)c1ccc(C(=O)Nc2cc(-c3cc(N[C@@H]4CCNC4)ncn3)c[nH]c2=O)cc1` [II-39], the Ki lay in the range of 100 to 1000 nM.
In the case of `O=C(Nc1cc(-c2cc(N[C@@H]3CCNC3)ncn2)c[nH]c1=O)c1ccc(N2CCCCC2)cc1` [II-45], the Ki was in the range of 100 to 1000 nM.
Take `CSc1nccc(-c2c[nH]c(=O)c(NC(=O)c3ccc(N4CCCCC4)cc3)c2)n1` [II-52]: the inhibitory constant (Ki) was 100 to 1000 nM.
The result for `CNc1ccnc(-c2c[nH]c(=O)c(NC(=O)c3ccc(N4CCCCC4)cc3)c2)n1` [II-56] reads 100 to 1000 nM; that for `CCOc1nccc(-c2c[nH]c(=O)c(NC(=O)c3ccc(N4CCCCC4)cc3)c2)n1` [II-57], 100 to 1000 nM; that for `O=C(Nc1cc(-c2ccnc(NCCO)n2)c[nH]c1=O)c1ccc(N2CCCCC2)cc1` [II-59], 100 to 1000 nM.
Take `CNCCNc1cccc(-c2c[nH]c(=O)c(NC(=O)c3ccc(N4CCCCC4)cc3)c2)n1` [II-60]: the Ki lay in the range of 100 to 1000 nM.
The result for `CNc1ncc(C)c(-c2c[nH]c(=O)c(NC(=O)c3ccc(C(C)(C)C)cc3)c2)n1` [II-62] reads 100 to 1000 nM; that for `CNc1nccc(-c2c[nH]c(=O)c(NC(=O)c3ccccc3)c2)n1` [II-64], below 100 nM.
Next, `CCc1cc(-c2c[nH]c(=O)c(NC(=O)c3ccc(N4CCCCC4)cc3)c2)nc(NC)n1` [II-66]: below 100 nM.
Consider `CNc1cccc(-c2c[nH]c(=O)c(NC(=O)c3ccc(N4CCCCC4)cc3)c2)c1` [II-69], for which the inhibition constant (Ki) was in the range of 100 to 1000 nM.
Next, `O=C(Nc1cc(-c2cccc(NCCO)n2)c[nH]c1=O)c1ccc(N2CCCCC2)cc1` [II-70]: 100 to 1000 nM.
Next, `COCCNc1cccc(-c2c[nH]c(=O)c(NC(=O)c3ccc(N4CCCCC4)cc3)c2)n1` [II-71]: 100 to 1000 nM; `CNCCOc1nccc(-c2c[nH]c(=O)c(NC(=O)c3ccc(N4CCCCC4)cc3)c2)n1` [II-76]: 100 to 1000 nM.
Take `CNCCN(C)c1cccc(-c2c[nH]c(=O)c(NC(=O)c3ccc(N4CCCCC4)cc3)c2)n1` [II-95]: the Ki is 100 to 1000 nM.
As for `CNc1nccc(-c2c[nH]c(=O)c(NC(=O)c3ccc(OCc4ccccc4)cc3)c2)n1` [II-97], the Ki is below 100 nM.
For the compound `CNc1nccc(-c2c[nH]c(=O)c(NC(=O)c3ccc(Cc4ccccc4)cc3)c2)n1` [II-98], the inhibition constant (Ki) lay in the range of 100 to 1000 nM.
The result for `N#Cc1cncc(-c2c[nH]c(=O)c(NC(=O)c3ccc(N4CCCCC4)cc3)c2)c1` [II-99] reads 100 to 1000 nM.
Turning to `O=C(Nc1cc(-c2ccncc2)c[nH]c1=O)c1ccc(N2CCNCC2)nc1` [II-100], the Ki is 100 to 1000 nM.
For `CC(=O)NCCNc1cccc(-c2c[nH]c(=O)c(NC(=O)c3ccc(N4CCCCC4)cc3)c2)n1` [II-101], the Ki is 100 to 1000 nM.
In the case of `O=C(Nc1cc(-c2cccc(NCCN3CCCC3)n2)c[nH]c1=O)c1ccc(N2CCCCC2)cc1` [II-104], the Ki lay in the range of 100 to 1000 nM.
`O=C(Nc1cc(-c2cccc(NCC3CCNCC3)n2)c[nH]c1=O)c1ccc(N2CCCCC2)cc1` [II-105]: the inhibition constant (Ki) fell in the range of 100 to 1000 nM.
As for `CNc1nccc(-c2c[nH]c(=O)c(NC(=O)c3ccc(NCCCN)cc3)c2)n1` [II-107], the inhibitory constant (Ki) was below 100 nM.
The result for `CC(C)[C@@H](CO)Nc1cccc(-c2c[nH]c(=O)c(NC(=O)c3ccc(N4CCCCC4)cc3)c2)n1` [II-108] reads 100 to 1000 nM.
For the compound `CCN1CCCC1CNc1cccc(-c2c[nH]c(=O)c(NC(=O)c3ccc(N4CCCCC4)cc3)c2)n1` (stereo not drawn) [II-120], the Ki was in the range of 100 to 1000 nM.
Turning to `O=C(Nc1cc(-c2cccc(CO)n2)c[nH]c1=O)c1ccc(N2CCCCC2)cc1` [II-121], the Ki lay in the range of 100 to 1000 nM.
With `CNc1cc(-c2c[nH]c(=O)c(NC(=O)c3ccc(N4CCCCC4)cc3)c2)nc(NC)n1` [II-123], the Ki was 100 to 1000 nM.
Next, `CNC(=O)c1cccc(-c2c[nH]c(=O)c(NC(=O)c3ccc(N4CCCCC4)cc3)c2)n1` [II-124]: 100 to 1000 nM.
Next, `CNc1cc(-c2c[nH]c(=O)c(NC(=O)c3ccc(N4CCNCC4)cc3)c2)ncn1` [II-126]: below 100 nM.
The result for `C[C@H](CN)Nc1cccc(-c2c[nH]c(=O)c(NC(=O)c3ccc(N4CCCCC4)cc3)c2)n1` [II-129] reads below 100 nM; that for `CNc1nc(C)cc(-c2c[nH]c(=O)c(NC(=O)c3ccc(N4CCCCC4)cc3)c2)n1` [II-130], below 100 nM.
With `CC(C)[C@@H](CO)Nc1cncc(-c2c[nH]c(=O)c(NC(=O)c3ccc(N4CCNCC4)cc3)c2)n1` [II-131], the inhibition constant Ki is below 100 nM.
Next, `CC(C)[C@H](CO)Nc1cccc(-c2c[nH]c(=O)c(NC(=O)c3ccc(N4CCCCC4)cc3)c2)n1` [II-132]: 100 to 1000 nM; `CC(C)(C)C(CO)Nc1cccc(-c2c[nH]c(=O)c(NC(=O)c3ccc(N4CCCCC4)cc3)c2)n1` (stereo not drawn) [II-133]: 100 to 1000 nM.
Next, `CNc1cccc(-c2c[nH]c(=O)c(NC(=O)c3ccc(OCCC4CCNCC4)cc3)c2)n1` [II-134]: below 100 nM; `CNc1cc(-c2c[nH]c(=O)c(NC(=O)c3ccc(N4C[C@@H](C)N[C@@H](C)C4)cc3)c2)ncn1` [II-135]: below 100 nM.
For `CNc1cc(-c2c[nH]c(=O)c(NC(=O)c3ccc(N4CCC[C@H]4CN4CCCC4)cc3)c2)ncn1` [II-136], the Ki was below 100 nM.
As for `CNc1cc(-c2c[nH]c(=O)c(NC(=O)c3ccc(C4=CCNCC4)cc3)c2)ncn1` [II-137], the Ki is 100 to 1000 nM.
With `CNc1cccc(-c2c[nH]c(=O)c(NC(=O)c3ccc(OCCN4CCNCC4)cc3)c2)n1` [II-138], the inhibition constant Ki was below 100 nM.
The result for `CNc1cncc(-c2c[nH]c(=O)c(NC(=O)c3ccc(N4CCNCC4)cc3)c2)n1` [II-139] reads below 100 nM.
Regarding `O=C(Nc1cc(-c2ccccn2)c[nH]c1=O)c1ccc(N2CCCCC2)cc1` [II-140], the Ki was 100 to 1000 nM.
Next, `CNc1cc(-c2c[nH]c(=O)c(NC(=O)c3ccc(OCCC4CCNCC4)cc3)c2)ncn1` [II-142]: below 100 nM; `Cn1cncc1-c1c[nH]c(=O)c(NC(=O)c2ccc(N3CCNCC3)cc2)c1` [II-144]: 100 to 1000 nM.
Next, `CNc1cncc(-c2c[nH]c(=O)c(NC(=O)c3ccc(N4CCC[C@H]4CN4CCCC4)cc3)c2)n1` [II-145]: below 100 nM.
